Among the data in PubChem BioAssay (NCI) are GI50 and TGI values, retold here.

Among the test systems are NCI-H23 lung; MALME-3M melanoma; OVCAR-3 ovarian; SN12C renal; SF-268 CNS; CAKI-1 renal; CCRF-CEM leukemia; RXF 393 renal; NCI-H522 lung; U251 CNS.
Experiment in all cases: NCI-60 cell line screen, 48 h

The structures appear in SMILES notation.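 Following 48 hours of exposure in 96-well plates, responses at five concentrations were used to interpolate endpoints linearly. At the GI50, growth is halved. TGI marks complete inhibition of growth.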 A value given as a limit tells only on which side of the number the result lay.

Regarding `O=C(c1ccco1)c1c(C(F)(F)F)n([O-])c2cc(F)c(F)cc2[n+]1=O`, the GI50 was 0.497 µM with NCI-H23 lung; 2.06 µM with MALME-3M melanoma; 0.193 µM in the experiment with OVCAR-3 ovarian; 0.307 µM in the experiment on SN12C renal; 0.29 µM in the experiment on SF-268 CNS; 0.44 µM with CAKI-1 renal. Also, the GI50 in the experiment on RXF 393 renal is 0.193 µM; with NCI-H522 lung, 1.88 µM; in the experiment with U251 CNS, 0.153 µM. Besides, the TGI in the experiment with NCI-H23 lung came out at 1.86 µM; in the experiment on MALME-3M melanoma it was 4.21 µM; with OVCAR-3 ovarian it was 1.35 µM; with SN12C renal, 1.01 µM; with SF-268 CNS, 1.09 µM; in the experiment on CAKI-1 renal it was 1.37 µM. Also, the TGI was over 23 µM with CCRF-CEM leukemia, 0.531 µM in the experiment with RXF 393 renal, 5.47 µM in the experiment with NCI-H522 lung and 0.291 µM in the experiment with U251 CNS.
Take `Cc1ccc(Cl)cc1-n1c(C)nc2c(cnn2-c2ccnc3c(C(F)(F)F)cccc23)c1=O`: the GI50 with NCI-H23 lung, in the experiment on MALME-3M melanoma, in the experiment with OVCAR-3 ovarian, in the experiment on SN12C renal, in the experiment on SF-268 CNS and in the experiment with CAKI-1 renal was over 100 µM each time. Moreover, the GI50 in the experiment on CCRF-CEM leukemia, in the experiment on RXF 393 renal, in the experiment with NCI-H522 lung and in the experiment on U251 CNS was over 100 µM in each case. Moreover, the TGI in the experiment with NCI-H23 lung, with MALME-3M melanoma, in the experiment on OVCAR-3 ovarian, with SN12C renal, in the experiment on SF-268 CNS and in the experiment on CAKI-1 renal was over 100 µM throughout. For the same molecule, the TGI with CCRF-CEM leukemia, with RXF 393 renal, with NCI-H522 lung and in the experiment with U251 CNS was over 100 µM throughout.
With `COc1ccc(-c2[nH]c3ccccc3c2/C=C(\C#N)S(=O)(=O)c2ccccc2)cc1`, the GI50 was 0.769 µM with NCI-H23 lung; 1.22 µM with MALME-3M melanoma; 0.241 µM in the experiment on OVCAR-3 ovarian; 1.34 µM in the experiment on SN12C renal; 1.13 µM in the experiment on SF-268 CNS; 0.975 µM in the experiment with CAKI-1 renal. In addition, the GI50 was 0.807 µM with CCRF-CEM leukemia, 1.02 µM in the experiment with RXF 393 renal, 1.78 µM in the experiment with NCI-H522 lung and 0.462 µM in the experiment with U251 CNS. In addition, the TGI was over 61.1 µM in the experiment with NCI-H23 lung; over 82 µM in the experiment on MALME-3M melanoma; 0.673 µM in the experiment on OVCAR-3 ovarian; over 100 µM in the experiment on SN12C renal; over 45.9 µM in the experiment on SF-268 CNS; over 31.6 µM in the experiment on CAKI-1 renal. Further, the TGI was over 100 µM in the experiment with RXF 393 renal and over 29.4 µM in the experiment with U251 CNS.
On to `CSC1=Nc2c(c(C)c(-c3ccccc3)n2COC(CO)CO)C2=NC(=O)CN12`, for which the GI50 in the experiment on NCI-H23 lung, in the experiment with MALME-3M melanoma, with OVCAR-3 ovarian, in the experiment on SN12C renal, in the experiment with SF-268 CNS and with CAKI-1 renal was over 100 µM each time. Further, the GI50 in the experiment on CCRF-CEM leukemia, with RXF 393 renal, in the experiment with NCI-H522 lung and in the experiment with U251 CNS was over 100 µM throughout. Besides, the TGI in the experiment on NCI-H23 lung, with MALME-3M melanoma, in the experiment with OVCAR-3 ovarian, in the experiment on SN12C renal, with SF-268 CNS and in the experiment with CAKI-1 renal was over 100 µM throughout. Besides, the TGI with CCRF-CEM leukemia, with RXF 393 renal, with NCI-H522 lung and in the experiment on U251 CNS was over 100 µM throughout.
Regarding `Nc1nc2ccccc2c2c1S(=O)(=O)c1ccc(Cl)cc1C2=O`, the GI50 in the experiment on NCI-H23 lung was 2.48 µM; in the experiment with MALME-3M melanoma, 1.23 µM; in the experiment with OVCAR-3 ovarian, 1.14 µM; with SN12C renal it was 1.16 µM; in the experiment on SF-268 CNS, 1.83 µM; in the experiment on CAKI-1 renal, 1.59 µM. The GI50 was 0.623 µM in the experiment on CCRF-CEM leukemia, 0.784 µM in the experiment with RXF 393 renal, 0.86 µM in the experiment on NCI-H522 lung and 1.79 µM with U251 CNS. Also, the TGI is over 50 µM in the experiment with NCI-H23 lung; 4.25 µM in the experiment with MALME-3M melanoma; 3.33 µM with OVCAR-3 ovarian; 4.54 µM in the experiment with SN12C renal; over 50 µM with SF-268 CNS; over 50 µM in the experiment on CAKI-1 renal. Further, the TGI is 4 µM in the experiment with CCRF-CEM leukemia, 2.05 µM in the experiment on RXF 393 renal, 2.2 µM in the experiment with NCI-H522 lung and 18.3 µM in the experiment on U251 CNS.
On to `C#CCNC(=O)NC(CCCCNC(=O)OCc1ccccc1)C(=O)OCc1ccccc1` (configuration not stated), for which the TGI was over 100 µM in the experiment with NCI-H23 lung; 61 µM in the experiment on MALME-3M melanoma; over 100 µM in the experiment on OVCAR-3 ovarian; over 81.1 µM in the experiment with SN12C renal; over 100 µM with SF-268 CNS; over 100 µM in the experiment with CAKI-1 renal. The TGI with CCRF-CEM leukemia is over 100 µM; in the experiment with RXF 393 renal, 43.1 µM; in the experiment with NCI-H522 lung, 17.1 µM; in the experiment on U251 CNS, over 100 µM.
Consider `N#Cc1cccc(Nc2ncc(-c3ccccc3)o2)c1`, for which the GI50 was over 22.8 µM with NCI-H23 lung; over 25 µM in the experiment on MALME-3M melanoma; 8.71 µM in the experiment on OVCAR-3 ovarian; 24.2 µM in the experiment with SN12C renal; 17.3 µM with SF-268 CNS; 8.44 µM in the experiment with CAKI-1 renal. Further, the GI50 in the experiment with CCRF-CEM leukemia is 20.8 µM; in the experiment on RXF 393 renal, 5.55 µM; in the experiment on NCI-H522 lung, 19.2 µM; in the experiment with U251 CNS, 10.6 µM. Also, the TGI in the experiment with NCI-H23 lung, in the experiment with MALME-3M melanoma, in the experiment with OVCAR-3 ovarian, in the experiment on SN12C renal, with SF-268 CNS and in the experiment on CAKI-1 renal was over 25 µM in each case. Besides, the TGI with CCRF-CEM leukemia was over 25 µM; in the experiment with RXF 393 renal it was 15.8 µM; in the experiment with NCI-H522 lung it was over 25 µM; with U251 CNS it was over 25 µM.
Regarding `O=c1[nH]c(=S)[nH]c(-c2ccccc2)c1Cc1c(O)ccc2ccccc12`, the TGI with NCI-H23 lung was 90.6 µM; in the experiment on MALME-3M melanoma it was over 100 µM; with OVCAR-3 ovarian it was over 100 µM; in the experiment with SN12C renal, over 100 µM; in the experiment with SF-268 CNS, over 100 µM; in the experiment on CAKI-1 renal, over 100 µM. For the same molecule, the TGI with CCRF-CEM leukemia was 41 µM; with RXF 393 renal, 95.1 µM; in the experiment on NCI-H522 lung, over 100 µM; in the experiment with U251 CNS, over 100 µM.
With `N#Cc1c(NC(=O)c2ccccc2F)sc2c1CCCC2`, the GI50 in the experiment on NCI-H23 lung was over 25 µM; with MALME-3M melanoma, over 25 µM; in the experiment with OVCAR-3 ovarian, over 25 µM; in the experiment with SN12C renal, over 25 µM; in the experiment on SF-268 CNS, over 25 µM; with CAKI-1 renal it was over 19.4 µM. Moreover, the GI50 in the experiment with CCRF-CEM leukemia was over 25 µM; in the experiment on RXF 393 renal it was over 25 µM; in the experiment with NCI-H522 lung it was over 12.8 µM; in the experiment with U251 CNS, over 25 µM. For the same molecule, the TGI in the experiment on NCI-H23 lung, with MALME-3M melanoma, in the experiment on OVCAR-3 ovarian, in the experiment with SN12C renal, in the experiment on SF-268 CNS and with CAKI-1 renal was over 25 µM each time. The TGI with CCRF-CEM leukemia, in the experiment with RXF 393 renal, in the experiment on NCI-H522 lung and with U251 CNS was over 25 µM in each case.
With `O=S(=O)(O)c1ccc2cc3nn(-c4ccc(/C=C/c5ccc(-n6nc7cc8ccc(S(=O)(=O)O)cc8cc7n6)cc5S(=O)(=O)O)c(S(=O)(=O)O)c4)nc3cc2c1`, the GI50 in the experiment on NCI-H23 lung is over 100 µM; in the experiment on MALME-3M melanoma it was over 100 µM; in the experiment with OVCAR-3 ovarian, over 100 µM; with SN12C renal, 67.8 µM; with SF-268 CNS it was over 100 µM; in the experiment on CAKI-1 renal, over 100 µM. The GI50 in the experiment on CCRF-CEM leukemia is 30.8 µM; with RXF 393 renal, over 100 µM; with NCI-H522 lung, 78.4 µM; in the experiment on U251 CNS, 50.3 µM. The TGI in the experiment on NCI-H23 lung, in the experiment on MALME-3M melanoma, with OVCAR-3 ovarian, in the experiment with SN12C renal, in the experiment with SF-268 CNS and with CAKI-1 renal was over 100 µM throughout. Also, the TGI in the experiment on CCRF-CEM leukemia, in the experiment with RXF 393 renal, in the experiment with NCI-H522 lung and with U251 CNS was over 100 µM in each case.
For `O=C1C(Nc2cccc(O)c2)=C(Sc2ccccc2)C(=O)N1Cc1ccccc1`, the GI50 in the experiment on NCI-H23 lung was 11.4 µM; with MALME-3M melanoma, 1.74 µM; in the experiment on OVCAR-3 ovarian, 4.83 µM; in the experiment with SN12C renal it was 13 µM; with SF-268 CNS it was 10.5 µM; in the experiment on CAKI-1 renal it was 21.6 µM. Further, the GI50 with CCRF-CEM leukemia was 1.88 µM; with RXF 393 renal it was 5.07 µM; in the experiment on NCI-H522 lung it was 5.75 µM; in the experiment with U251 CNS, 13 µM. The TGI in the experiment with NCI-H23 lung stood at 27.8 µM; with MALME-3M melanoma, 9.97 µM; with OVCAR-3 ovarian, 19.9 µM; with SN12C renal, 29.6 µM; in the experiment on SF-268 CNS, 26.8 µM; in the experiment with CAKI-1 renal, 55.2 µM. Further, the TGI in the experiment with CCRF-CEM leukemia is 10.1 µM; with RXF 393 renal, 25.6 µM; in the experiment on NCI-H522 lung, 23.9 µM; with U251 CNS it was 35.4 µM.
In the case of `COc1cc(C(=O)/C=C/c2c(C(F)(F)F)nc3ccccn23)cc(OC)c1OC`, the GI50 in the experiment with NCI-H23 lung was 1.51 µM; with MALME-3M melanoma it was 1.57 µM; in the experiment with OVCAR-3 ovarian it was 1.83 µM; in the experiment with SN12C renal it was 2.09 µM; with SF-268 CNS, 1.64 µM; in the experiment on CAKI-1 renal, 1.82 µM. The GI50 in the experiment with CCRF-CEM leukemia is 4.15 µM; with RXF 393 renal, 1.87 µM; with NCI-H522 lung it was 1.77 µM; in the experiment with U251 CNS, 1.29 µM. For the same molecule, the TGI is 4.01 µM in the experiment on NCI-H23 lung; 3.35 µM with MALME-3M melanoma; 3.61 µM in the experiment with OVCAR-3 ovarian; 6.49 µM in the experiment on SN12C renal; 3.52 µM with SF-268 CNS; 4.44 µM in the experiment on CAKI-1 renal. Moreover, the TGI in the experiment with CCRF-CEM leukemia was over 100 µM; with RXF 393 renal, 3.91 µM; in the experiment with NCI-H522 lung, 3.91 µM; in the experiment with U251 CNS, 3.31 µM.
